From US20190365689A1, “USE OF APE/REF-1 REDOX SPECIFIC INHIBITORS FOR TREATING METASTATIC PROSTATE CANCER” (Indiana University Research and Technology Corporation, priority 2017, published 2019)

Key:
LNCaP cells = test: Methylene blue assay (cell proliferation), LNCaP; assay type: cell-based, human; conditions: 5 days
Experimental: (§1) The cells were fixed and stained with methylene blue and measured via spectrophotometry. […] EC50s were compared between the drugs: * denotes p<0.05 drug EC50 versus RN7-58, while ¶ denotes p<0.05, APX3330 versus APX2009.
(§2) Methylene Blue Assay (Cell Proliferation)
(§3) Prostate cells were seeded 1,000-5000 per well (cell line/experiment-dependent) and treated with one of APX3330, APX2009 or RN7-58 for 5 days. Media was then removed and cells were fixed with methanol for 10 minutes and stained with 100 μL of 0.05% of methylene blue (LC16920-1 diluted in 1×PBS) for 1 hour. The cells were then washed 3× with water and allowed to air dry overnight. 100 μL of 0.5 N HCl was added to each well to dissolve the methylene blue stain and absorbance (@630) was measured via spectrophotometry. The percent viabilities, normalized to DMSO, were graphed and IC50 concentrations determined.
(§4) To determine if inhibition of APE1/Ref-1's redox function affects cell proliferation, prostatic cell lines were treated with increasing concentrations of redox-specific inhibitors, APX3330 and APX2009, for 5 days and cell number was measured via methylene blue assay (FIG. 2A). […] Growth IC25's and IC50's were determined and arranged in Table 1. Student's t-test was performed to verify statistical IC25 and IC50 differences between APX3330 and APX2009.

survivin = test: Immunoblotting for survivin protein levels in prostate cancer cells; assay type: cell-based, human
Experimental: (§5) PC-3 (FIG. 3A), C4-2 (FIG. 3B), LNCaP (FIG. 3C) and E7 (FIG. 3D) cell lines were treated with DMSO, or the growth inhibitory IC25 and IC50 drug concentrations of APX3330 or APX2009 for 48 hours Immunoblotting for survivin, APE1/Ref-1 and Actin as labeled. Representative of three determinations with densitometry quantification, N=3, *-denoting p<0.05 (DMSO vs. IC25 and IC50 Drug Concentrations) within ANOVA.
FIG. 6A: C4-2 cell line was treated with DMSO or APX2009 (14 μM) for 12 hours. RNA was isolated and RT-PCR for survivin was performed with HPRT1 as the reference gene. n=6, *-denoting p<0.05 by unpaired Student's t-test. FIG. 6B: Immunoblot validation of APE1/Ref-1 and p65 Co-Immunoprecipitation (Co-IP) reactions. A 5% sample of the total input of each reaction (Input) and the total IP reaction (IP) were loaded for each reaction. Beads lacking a conjugated antibody (Mock) and generic IgG (IgG) were used as negative controls for each IP experimental reaction, APE1 antibody (top blots) and p65 (bottom blots). FIG. 6C: C4-2 cell line was treated with DMSO, APX2009 (8 and 14 μM) or PDTC (50 and 100 μM) for 72 hours and cells were fixed and methylene blue was performed. n=3, *-denoting p<0.05 (DMSO vs 8 and 14 μM APX2009) and #-denoting p<0.05 (DMSO vs. 50 and 100 μM PDTC) as assessed by ANOVA. […] Data are expressed as Relative Luciferase Units (RLU) normalized to DMSO showing the mean±SEM. n=3, *-denoting p<0.05 (DMSO vs. 14 μM APX2009) and #-denoting p<0.05 (DMSO vs. 100 μM PDTC) within unpaired Students t-test. […] Data presented are representative of three determinations with densitometry quantification, […], *-denoting p<0.05 (DMSO vs. 14 μM APX2009) and #-denoting p<0.05 (DMSO vs. 100 μM) as assessed by unpaired Student's t-test.
Prostate cells were homogenized in lysis buffer containing protease inhibitor (150 mM NaCl, 10 mM tris, 1 mM EDTA, 1 mM benzenesulfonyl fluoride, and 10 μg/ml each of aprotinin, bestatin, L-luecine, and pepstatin A) and 1% Triton X-100. Total protein concentration was determined by BCA (bicinchoninic acid) assay (Pierce, Rockford, Ill.). […]

PC-3 cells = test: Methylene blue assay (cell proliferation), PC-3; assay type: cell-based, human; conditions: PC-3, 5 days
Experimental: as §1, §2, §3, §4

C4-2 cells = test: Methylene blue assay (cell proliferation), C4-2; assay type: cell-based, human; conditions: C4-2, 5 days
Experimental: as §1, §2, §3, §4

prostatic cell lines = test: Methylene blue assay (cell proliferation), statements across prostatic cell lines; assay type: cell-based, human; conditions: increasing concentrations, 5 days
Experimental: as §1, §2, §3, §4

APE1/Ref-1 = test: Immunoblotting for total APE1/Ref-1 protein levels in prostate cancer cells; assay type: cell-based, human; conditions: growth inhibitory drug concentrations, 48 hours, vs DMSO
Experimental: as §5
Prostate cells were homogenized in lysis buffer containing protease inhibitor (150 mM NaCl, 10 mM tris, 1 mM EDTA, 1 mM benzenesulfonyl fluoride, and 10 μg/ml each of aprotinin, bestatin, L-luecine, and pepstatin A) and 1% Triton X-100. Total protein concentration was determined by BCA (bicinchoninic acid) assay (Pierce, Rockford, Ill.). 10 μg/well of Protein were resolved by electrophoresis in 4-15% gradient polyacrylamide gels (Bio-Rad Laboratories). […] Peroxidase activity was detected via Pico chemiluminescence reagent (Pierce). Photo images were analyzed by densitometry.

E7 cells = test: Methylene blue assay (cell proliferation), E7 non-cancerous prostate epithelial cells; assay type: cell-based; conditions: E7, 5 days
Experimental: as §1, §2, §3, §4

C4-2 xenograft tumors = test: In vivo subcutaneous C4-2 xenograft tumor; design: species or system male athymic nude mice
Experimental: C4-2 xenograft tumors were treated with vehicle (Propylene Glycol Kolliphor HS15 Tween 80 (PKT)) or APX2009 (25 mg/kg, IP bid) for 5 days (n=3). Tumors were removed and processed for either immunofluorescence or immunoblotting. FIG. 8A: APE1/Ref-1 and survivin protein levels were measured using immunoblotting as labeled (Left). Data was presented graphically (Right), *-denoting p<0.05 by unpaired Student's t-Test. FIG. 8B: Hematoxylin and Eosin staining and immunofluorescence were performed using APE1/Ref-1 (red) and survivin (green) specific antibodies on vehicle and APX2009 groups. Representative images were taken. White arrows are depicting survivin nuclear staining patterns. […] ImageJ Nucleus Counter was used to quantify number of BrdU+ nuclei and total nuclei per image. n=3, *-denoting p<0.05 by unpaired Student's t-test.
Human prostate specimens or C4-2 xenograft tumors were fixed in 10% formalin, processed routinely, embedded in paraffin, and serially sectioned at 5 μm via microtome. […] The sections were analyzed by immunofluorescence. […]
2×10^6 C4-2 cells were subcutaneously implanted in the hind flank of male athymic nude mice using a 100 μl volume of 50:50 solution of Matrigel: RPMI medium. […] BrdU was injected into the animals 2 hours prior to sacrifice and tumor tissues were analyzed for survivin levels (immunofluorescence and immunoblotting) and BrdU incorporation (immunofluorescence).

NFκB = test: NFκB-driven luciferase assay in C4-2 cells; assay type: cell-based, human; conditions: C4-2, growth inhibitory IC50 concentrations (14 μM APX2009, 100 μM PDTC), 24 hours
Experimental: FIG. 6A: C4-2 cell line was treated with DMSO or APX2009 (14 μM) for 12 hours. RNA was isolated and RT-PCR for survivin was performed with HPRT1 as the reference gene. n=6, *-denoting p<0.05 by unpaired Student's t-test. FIG. 6B: Immunoblot validation of APE1/Ref-1 and p65 Co-Immunoprecipitation (Co-IP) reactions. A 5% sample of the total input of each reaction (Input) and the total IP reaction (IP) were loaded for each reaction. Beads lacking a conjugated antibody (Mock) and generic IgG (IgG) were used as negative controls for each IP experimental reaction, APE1 antibody (top blots) and p65 (bottom blots). FIG. 6C: C4-2 cell line was treated with DMSO, APX2009 (8 and 14 μM) or PDTC (50 and 100 μM) for 72 hours and cells were fixed and methylene blue was performed. n=3, *-denoting p<0.05 (DMSO vs 8 and 14 μM APX2009) and #-denoting p<0.05 (DMSO vs. 50 and 100 μM PDTC) as assessed by ANOVA. […] Data are expressed as Relative Luciferase Units (RLU) normalized to DMSO showing the mean±SEM. n=3, *-denoting p<0.05 (DMSO vs. 14 μM APX2009) and #-denoting p<0.05 (DMSO vs. 100 μM PDTC) within unpaired Students t-test. […] Data presented are representative of three determinations with densitometry quantification, […], *-denoting p<0.05 (DMSO vs. 14 μM APX2009) and #-denoting p<0.05 (DMSO vs. 100 μM) as assessed by unpaired Student's t-test. […]

[1] = 25% reduction in absorbance vs DMSO, in µM
[2] = 50% reduction in absorbance vs DMSO, read-out: Growth IC50

| Compound | Growth IC25 (LNCaP cells; [1]) | IC50 (LNCaP cells; [2]) [µM] | survivin protein abundance (survivin; growth inhibitory IC50 drug concentrations, within 48 hours, vs DMSO) | survival proteins Bcl-2, Mcl-1 and survivin (survivin; prostate cell lines, immunoblotting) | Growth IC25 (PC-3 cells; [1]) | IC50 (PC-3 cells; [2]) [µM] | Growth IC25 (C4-2 cells; [1]) | IC50 (C4-2 cells; [2]) [µM] | Effect on cell proliferation (prostatic cell lines) | total APE1/Ref-1 protein levels (APE1/Ref-1) | Growth IC25 (E7 cells; [1]) | IC50 (E7 cells; [2]) [µM] | Total survivin protein in tumors via immunoblotting (C4-2 xenograft tumors; 25 mg/kg BID IP, 5 days, vs vehicle) | cell proliferation via BrdU staining (C4-2 xenograft tumors; prostatic tumor xenografts) | decrease in NFκB-driven luciferase activity (NFκB) | reduction in survivin protein levels (survivin; C4-2, 14 μM APX2009 / 100 μM PDTC, 48 hours) [%] |
| --- | --- | --- | --- | --- | --- | --- | --- | --- | --- | --- | --- | --- | --- | --- | --- | --- |
| 3-[(5-(2,3-dimethoxy-6-methyl1,4-benzoquinoyl)]-2-nonyl-2-proprionic acid [APX3330] | 43.8 +/− 4.2 | 71.9 | significant decrease | decrease | 36.0 +/− 1.0 | 54.7 | 57.4 +/− 3.8 | 89.5 | inhibited cell proliferation in a concentration-dependent manner | not significantly altered | 82.7 +/− 8.7 | > 100 | decreased | decreased |  |  |
| N.S=C(S)N1CCCC1 [PDTC, Ammonium pyrrolidinedithiocarbamate, reference compound] |  |  |  |  |  |  |  |  |  |  |  |  |  |  | two-fold | 67 |
